Experimental data from patent publication US6982348B2, “Aminoethanol derivatives” (Takeda Pharmaceutical Company Limited, priority 2001, dated 2006).

Compound	melting point [°C]
O=C(CCc1ccccc1)N[C@H](Cc1ccc(C(F)(F)F)cc1)[C@@H](O)c1ccc(Cl)nc1 (racemic) [Example 203, N-((1RS,2SR)-2-(6-chloro-3-pyridyl)-2-hydroxy-1-((4-(trifluoromethyl)phenyl)methyl)ethyl)-3-phenylpropanamide]	149 to 150
O=C(N[C@H](Cc1ccc(C(F)(F)F)cc1)[C@@H](O)c1cccc(Oc2ccccc2)c1)c1ccc(F)c2ccccc12 (racemic) [Example 207, N-((1RS,2SR)-2-hydroxy-2-(3-phenoxyphenyl)-1-((4-(trifluoromethyl)phenyl)methyl)ethyl)-4-fluoro-1-naphthalenecarboxamide]	184 to 185
O=C(CCc1ccccc1)N[C@H](Cc1ccc(C(F)(F)F)cc1)[C@@H](O)c1cccc(Oc2ccccc2)c1 (racemic) [Example 208, N-((1RS,2SR)-2-hydroxy-2-(3-phenoxyphenyl)-1-((4-(trifluoromethyl)phenyl)methyl)ethyl)-3-phenylpropanamide]	134 to 135
O=C(N[C@H](Cc1ccc(C(F)(F)F)cc1)[C@@H](O)c1ccc(Oc2ccccc2)cc1)c1ccc(F)c2ccccc12 (racemic) [Example 209, N-((1RS,2SR)-2-hydroxy-2-(4-phenoxyphenyl)-1-((4-(trifluoromethyl)phenyl)methyl)ethyl)-4-fluoro-1-naphthalenecarboxamide]	205 to 210
O=C(CCc1ccccc1)N[C@H](Cc1ccc(C(F)(F)F)cc1)[C@@H](O)c1ccc(Oc2ccccc2)cc1 (racemic) [Example 211, N-((1RS,2SR)-2-hydroxy-2-(4-phenoxyphenyl)-1-((4-(trifluoromethyl)phenyl)methyl)ethyl)-3-phenylpropanamide]	133 to 134
O=C(N[C@H](Cc1ccc(F)cc1)[C@@H](O)c1ccc(C(F)(F)F)cc1)c1cccc2ccccc12 (racemic) [Example 212, N-((1RS,2SR)-1-((4-fluorophenyl)methyl)-2-hydroxy-2-(4-(trifluoromethyl)phenyl)ethyl)-1-naphthalenecarboxamide]	207 to 208
O=C(N[C@H](Cc1ccc(F)cc1)[C@@H](O)c1ccc(C(F)(F)F)cc1)c1ccc(F)c2ccccc12 (racemic) [Example 213, 4-fluoro-N-((1RS,2SR)-1-((4-fluorophenyl)methyl)-2-hydroxy-2-(4-(trifluoromethyl)phenyl)ethyl)-1-naphthalenecarboxamide]	235 to 236
O=C(N[C@H](Cc1ccc(F)cc1)[C@@H](O)c1ccc(C(F)(F)F)cc1)C1CCCCC1 (racemic) [Example 214, N-((1RS,2SR)-1-((4-fluorophenyl)methyl)-2-hydroxy-2-(4-(trifluoromethyl)phenyl)ethyl)cyclohexanecarboxamide]	220 to 221
O=C(CCCc1ccccc1)N[C@H](Cc1ccc(F)cc1)[C@@H](O)c1ccc(C(F)(F)F)cc1 (racemic) [Example 215, N-((1RS,2SR)-1-((4-fluorophenyl)methyl)-2-hydroxy-2-(4-(trifluoromethyl)phenyl)ethyl)-4-phenylbutyramide]	155 to 156
CC(C)(C)OC(=O)N[C@H](Cc1cccc(OC(F)(F)C(F)F)c1)[C@@H](O)c1ccnc(F)c1 (racemic) [Example 219, 1,1-dimethylethyl(1RS,2SR)-2-(2-fluoropyridin-4-yl)-2-hydroxy-1-((3-(1,1,2,2-tetrafluoroethoxy)phenyl)methyl)ethylcarbamate]	143 to 144
CC(C)(C)OC(=O)N[C@H](Cc1cccc(OC(F)(F)C(F)F)c1)[C@@H](O)c1cccc(F)n1 (racemic) [Example 221, 1,1-dimethylethyl(1RS,2RS)-2-(6-fluoropyridin-2-yl)-2-hydroxy-1-((3-(1,1,2,2-tetrafluoroethoxy)phenyl)methyl)ethylcarbamate]	140 to 141
CC(C)(C)OC(=O)N[C@H](Cc1cccc(OC(F)(F)C(F)F)c1)[C@@H](O)c1ccc(F)nc1 (racemic) [Example 223, 1,1-dimethylethyl(1RS,2SR)-2-(6-fluoropyridin-3-yl)-2-hydroxy-1-((3-(1,1,2,2-tetrafluoroethoxy)phenyl)methyl)ethylcarbamate]	128 to 129
O=C(N[C@H](Cc1cccc(OC(F)(F)C(F)F)c1)[C@@H](O)c1ccc(F)nc1)c1ccc(F)c2ccccc12 (racemic) [Example 224, N-((1RS,2SR)-2-(6-fluoropyridin-3-yl)-2-hydroxy-1-((3-(1,1,2,2-tetrafluoroethoxy)phenyl)methyl)ethyl)-4-fluoro-1-naphthalenecarboxamide]	148 to 149
Cc1cc(C[C@@H](NC(=O)c2ccc(F)c3ccccc23)[C@@H](O)c2ccc(F)cc2)cc(OC(F)(F)C(F)F)c1 (racemic) [Example 230, N-((1RS,2SR)-2-(4-fluorophenyl)-2-hydroxy-1-((5-methyl-3-(1,1,2,2-tetrafluoroethoxy)phenyl)methyl)ethyl)-4-fluoro-1-naphthalenecarboxamide]	189 to 190
CC(C)(C)OC(=O)N[C@H](Cc1cccc(OC(F)(F)C(F)F)n1)[C@@H](O)c1ccc(F)cc1 (racemic) [Example 238, tert-butyl (1RS,2SR)-2-(4-fluorophenyl)-2-hydroxy-1-{[6-(1,1,2,2-tetrafluoroethoxy)pyridin-2-yl]methyl}ethylcarbamate]	109 to 110
O=C(N[C@H](Cc1cccc(OC(F)(F)C(F)F)n1)[C@@H](O)c1ccc(F)cc1)c1cccc2c1C=CCCC2 (racemic) [Example 239, N-((1RS,2SR)-2-(4-fluorophenyl)-2-hydroxy-1-{[6-(1,1,2,2-tetrafluoroethoxy)pyridin-2-yl]methyl}ethyl)-6,7-dihydro-5H-benzo[a][7]annulene-1-carboxamide]	134 to 135
CCCCOc1ccc([C@H](O)[C@@H](Cc2cccc(OC(F)(F)C(F)F)c2)NC(=O)c2cccc3c2C=CCCC3)cc1 (racemic) [Example 244, N-{(1RS,2SR)-2-(4-butoxyphenyl)-2-hydroxy-1-[3-(1,1,2,2-tetrafluoroethoxy)benzyl]ethyl}-6,7-dihydro-5H-benzo[a][7]annulene-1-carboxamide]	126 to 127

Further lines, results first:

melting point [°C]	Compound
168 to 169	Cc1ccc(C[C@@H](NC(=O)c2cccc3c2C=CCCC3)[C@@H](O)c2ccc(F)cc2)cc1OC(F)(F)C(F)F (racemic) [Example 234, N-((1RS,2SR)-2-(4-fluorophenyl)-2-hydroxy-1-((4-methyl-3-((1,1,2,2-tetrafluoroethyl)oxy)phenyl)methyl)ethyl)-6,7-dihydro-5H-benzo[a]cycloheptene-1-carboxamide]
150 to 155	O=C(N[C@H](Cc1cccc(OC(F)(F)C(F)F)c1)[C@@H](O)c1cccc(F)c1)c1cccc2c1C=CCCC2 (racemic) [Example 235, N-((1RS,2SR)-2-(3-fluorophenyl)-2-hydroxy-1-[3-(1,1,2,2-tetrafluoroethoxy)benzyl]ethyl)-6,7-dihydro-5H-benzo[a][7]annulene-1-carboxamide]
115 to 116	O=C(N[C@H](Cc1cccc(OC(F)(F)C(F)F)c1)[C@@H](O)c1ccc(OCc2ccccc2)cc1)c1cccc2c1C=CCCC2 (racemic) [Example 236, N-{(1RS,2SR)-2-[4-(benzyloxy)phenyl]-2-hydroxy-1-[3-(1,1,2,2-tetrafluoroethoxy)benzyl]ethyl}-6,7-dihydro-5H-benzo[a][7]annulene-1-carboxamide]
160 to 161	O=C(N[C@H](Cc1cccc(OC(F)(F)C(F)F)c1)[C@@H](O)c1cccc(Cl)c1)c1cccc2c1C=CCCC2 (racemic) [Example 237, N-{(1RS,2SR)-2-(3-chlorophenyl)-2-hydroxy-1-[3-(1,1,2,2-tetrafluoroethoxy)benzyl]ethyl}-6,7-dihydro-5H-benzo[a][7]annulene-1-carboxamide]
128 to 129	O=C(N[C@H](Cc1cccc(OC(F)(F)C(F)F)c1)[C@@H](O)c1cccc(OCc2ccccc2)c1)c1cccc2c1C=CCCC2 (racemic) [Example 240, N-{(1RS,2SR)-2-[3-(benzyloxy)phenyl]-2-hydroxy-1-[3-(1,1,2,2-tetrafluoroethoxy)benzyl]ethyl}-6,7-dihydro-5H-benzo[a][7]annulene-1-carboxamide]
167 to 168	O=C(N[C@H](Cc1cccc(OC(F)(F)C(F)F)c1)[C@@H](O)c1ccc(O)cc1)c1cccc2c1C=CCCC2 (racemic) [Example 241, N-{(1RS,2SR)-2-hydroxy-2-(4-hydroxyphenyl)-1-[3-(1,1,2,2-tetrafluoroethoxy)benzyl]ethyl}-6,7-dihydro-5H-benzo[a][7]annulene-1-carboxamide]
151 to 152	COc1ccc([C@H](O)[C@@H](Cc2cccc(OC(F)(F)C(F)F)c2)NC(=O)c2cccc3c2C=CCCC3)cc1 (racemic) [Example 242, N-{(1RS,2SR)-2-hydroxy-2-(4-methoxyphenyl)-1-[3-(1,1,2,2-tetrafluoroethoxy)benzyl]ethyl}-6,7-dihydro-5H-benzo[a][7]annulene-1-carboxamide]
134 to 135	CC(C)Oc1ccc([C@H](O)[C@@H](Cc2cccc(OC(F)(F)C(F)F)c2)NC(=O)c2cccc3c2C=CCCC3)cc1 (racemic) [Example 243, N-{(1RS,2SR)-2-hydroxy-2-(4-isopropoxyphenyl)-1-[3-(1,1,2,2-tetrafluoroethoxy)benzyl]ethyl}-6,7-dihydro-5H-benzo[a][7]annulene-1-carboxamide]
144 to 145	O=C(N[C@H](Cc1cccc(OC(F)(F)C(F)F)c1)[C@@H](O)c1ccc(OCc2ccc(F)cc2)cc1)c1cccc2c1C=CCCC2 (racemic) [Example 245, N-{(1RS,2SR)-2-{4-[(4-fluorobenzyl)oxy]phenyl}-2-hydroxy-1-[3-(1,1,2,2-tetrafluoroethoxy)benzyl]ethyl}-6,7-dihydro-5H-benzo[a][7]annulene-1-carboxamide]
141 to 142	O=C(N[C@H](Cc1cccc(OC(F)(F)C(F)F)c1)[C@@H](O)c1ccc(OCC2CCCCC2)cc1)c1cccc2c1C=CCCC2 (racemic) [Example 246, N-{(1RS,2SR)-2-[4-(cyclohexylmethoxy)phenyl]-2-hydroxy-1-[3-(1,1,2,2-tetrafluoroethoxy)benzyl]ethyl}-6,7-dihydro-5H-benzo[a][7]annulene-1-carboxamide]
